Source: the NIST ThermoML archive (doi:10.1016/j.jct.2011.07.018)

Experiments:
[1] = 298.15 K; 101.33 kPa; Liquid; Vibrating tube method
[2] = excess molar enthalpy (molar enthalpy of mixing); xn = mol fraction of the nth substance listed; conditions: 298.15 K, 101 kPa, Liquid, isothermal titration calorimeter

CCCCCCC(C)=O [2-octanone]
Conditions | mass density [kg/m3]
[1] | 814.32

CCCCCCC(C)=O [2-octanone] + CCCCCCCCO
[2]
Conditions | excess molar enthalpy [kcal/mol]
x2 = 0.015 | 0.0217
x2 = 0.03 | 0.0425
x2 = 0.045 | 0.0619
x2 = 0.059 | 0.0793
x2 = 0.072 | 0.0961
x2 = 0.085 | 0.111
x2 = 0.098 | 0.126
x2 = 0.111 | 0.139
x2 = 0.124 | 0.152
x2 = 0.137 | 0.165
x2 = 0.15 | 0.177
x2 = 0.162 | 0.188
x2 = 0.174 | 0.197
x2 = 0.186 | 0.207
x2 = 0.197 | 0.215
x2 = 0.206 | 0.228
x2 = 0.212 | 0.233
x2 = 0.218 | 0.237
x2 = 0.225 | 0.241
x2 = 0.232 | 0.246
x2 = 0.24 | 0.251
x2 = 0.248 | 0.256
x2 = 0.256 | 0.261
x2 = 0.266 | 0.266
x2 = 0.276 | 0.272
x2 = 0.283 | 0.275
x2 = 0.291 | 0.279
x2 = 0.299 | 0.283
x2 = 0.308 | 0.286
x2 = 0.317 | 0.29
x2 = 0.327 | 0.294
x2 = 0.337 | 0.298
x2 = 0.348 | 0.301
x2 = 0.36 | 0.305
x2 = 0.373 | 0.308
x2 = 0.383 | 0.31
x2 = 0.393 | 0.313
x2 = 0.404 | 0.315
x2 = 0.415 | 0.316
x2 = 0.428 | 0.318
x2 = 0.44 | 0.32
x2 = 0.454 | 0.321
x2 = 0.469 | 0.322
x2 = 0.484 | 0.322
x2 = 0.496 | 0.321
x2 = 0.509 | 0.321
x2 = 0.523 | 0.32
x2 = 0.537 | 0.318
x2 = 0.552 | 0.316
x2 = 0.567 | 0.313
x2 = 0.587 | 0.31
x2 = 0.602 | 0.305
x2 = 0.62 | 0.3
x2 = 0.64 | 0.293
x2 = 0.657 | 0.288
x2 = 0.674 | 0.281
x2 = 0.692 | 0.273
x2 = 0.711 | 0.263
x2 = 0.731 | 0.252
x2 = 0.752 | 0.24
x2 = 0.775 | 0.226
x2 = 0.799 | 0.209
x2 = 0.82 | 0.194
x2 = 0.841 | 0.176
x2 = 0.864 | 0.156
x2 = 0.888 | 0.133
x2 = 0.914 | 0.107
x2 = 0.941 | 0.0762
x2 = 0.97 | 0.0411

CCCCCCC(C)=O [2-octanone] + CCCCCCO
[2]
Conditions | excess molar enthalpy [kcal/mol]
x2 = 0.021 | 0.0275
x2 = 0.041 | 0.0519
x2 = 0.06 | 0.0741
x2 = 0.079 | 0.0939
x2 = 0.097 | 0.112
x2 = 0.114 | 0.129
x2 = 0.13 | 0.143
x2 = 0.146 | 0.157
x2 = 0.164 | 0.171
x2 = 0.181 | 0.183
x2 = 0.197 | 0.195
x2 = 0.213 | 0.205
x2 = 0.228 | 0.214
x2 = 0.242 | 0.223
x2 = 0.259 | 0.232
x2 = 0.275 | 0.239
x2 = 0.29 | 0.246
x2 = 0.304 | 0.252
x2 = 0.314 | 0.258
x2 = 0.322 | 0.261
x2 = 0.331 | 0.264
x2 = 0.339 | 0.267
x2 = 0.349 | 0.27
x2 = 0.359 | 0.273
x2 = 0.367 | 0.275
x2 = 0.376 | 0.278
x2 = 0.385 | 0.28
x2 = 0.394 | 0.282
x2 = 0.405 | 0.284
x2 = 0.415 | 0.286
x2 = 0.426 | 0.287
x2 = 0.438 | 0.289
x2 = 0.448 | 0.29
x2 = 0.458 | 0.291
x2 = 0.469 | 0.291
x2 = 0.48 | 0.291
x2 = 0.492 | 0.292
x2 = 0.504 | 0.292
x2 = 0.517 | 0.291
x2 = 0.531 | 0.29
x2 = 0.542 | 0.289
x2 = 0.554 | 0.288
x2 = 0.566 | 0.286
x2 = 0.58 | 0.284
x2 = 0.593 | 0.282
x2 = 0.608 | 0.279
x2 = 0.623 | 0.275
x2 = 0.638 | 0.271
x2 = 0.652 | 0.266
x2 = 0.667 | 0.261
x2 = 0.682 | 0.255
x2 = 0.698 | 0.249
x2 = 0.714 | 0.241
x2 = 0.731 | 0.233
x2 = 0.746 | 0.225
x2 = 0.762 | 0.217
x2 = 0.778 | 0.207
x2 = 0.795 | 0.196
x2 = 0.812 | 0.185
x2 = 0.83 | 0.171
x2 = 0.85 | 0.157
x2 = 0.866 | 0.143
x2 = 0.879 | 0.129
x2 = 0.897 | 0.112
x2 = 0.916 | 0.0944
x2 = 0.936 | 0.0746
x2 = 0.956 | 0.0526
x2 = 0.978 | 0.0277

C[S+](C)[O-] [dimethyl sulfoxide]
Conditions | mass density [kg/m3]
[1] | 1095.32

CN(C)C=O [dimethylformamide]
Conditions | mass density [kg/m3]
[1] | 944.34

CCCCCCO [hexan-1-ol]
Conditions | mass density [kg/m3]
[1] | 815.21

CCCCCC(=O)O [hexanoic acid]
Conditions | mass density [kg/m3]
[1] | 922.06

CCCCCC(=O)O [hexanoic acid] + CCCCCCO
[2]
Conditions | excess molar enthalpy [kcal/mol]
x2 = 0.025 | 0.0232
x2 = 0.048 | 0.0423
x2 = 0.07 | 0.0586
x2 = 0.091 | 0.0722
x2 = 0.112 | 0.0841
x2 = 0.131 | 0.0942
x2 = 0.154 | 0.106
x2 = 0.176 | 0.115
x2 = 0.198 | 0.123
x2 = 0.218 | 0.129
x2 = 0.238 | 0.134
x2 = 0.256 | 0.139
x2 = 0.268 | 0.143
x2 = 0.277 | 0.145
x2 = 0.287 | 0.147
x2 = 0.298 | 0.149
x2 = 0.309 | 0.15
x2 = 0.321 | 0.152
x2 = 0.335 | 0.153
x2 = 0.349 | 0.155
x2 = 0.365 | 0.156
x2 = 0.377 | 0.156
x2 = 0.39 | 0.156
x2 = 0.404 | 0.156
x2 = 0.419 | 0.156
x2 = 0.435 | 0.156
x2 = 0.452 | 0.155
x2 = 0.47 | 0.153
x2 = 0.491 | 0.151
x2 = 0.506 | 0.149
x2 = 0.523 | 0.147
x2 = 0.54 | 0.144
x2 = 0.559 | 0.141
x2 = 0.579 | 0.137
x2 = 0.601 | 0.132
x2 = 0.624 | 0.127
x2 = 0.649 | 0.121
x2 = 0.669 | 0.115
x2 = 0.691 | 0.109
x2 = 0.714 | 0.103
x2 = 0.738 | 0.0956
x2 = 0.765 | 0.0872
x2 = 0.793 | 0.0784
x2 = 0.817 | 0.07
x2 = 0.843 | 0.0609
x2 = 0.87 | 0.0511
x2 = 0.899 | 0.0404
x2 = 0.931 | 0.0272
x2 = 0.964 | 0.0141
